This note sets out measurements from patent US8802665B2, “Pyrrolidine derivatives” (Hoffman-La Roche Inc., priority 2012, dated 2014).

As usually defined, the pIC50 is −log10 of the IC50, conventionally taken in molar units.

In the test the target is human Cat S (Homo sapiens (Human), UniProt P25774). As to the kind of experiment: Cathepsin enzyme inhibition assay (fluorogenic peptide substrate cleavage). The settings on record: human Cathepsin S 1 nM, substrate Z-Val-Val-Arg-AMC 20 μM, pH 6.5; read-out: Ic50 CatS: human. The test is classed as biochemical. The protocol:
Cathepsin Enzyme Inhibition Assay
Enzyme activity is measured by observing the increase in fluorescence intensity caused by cleavage of a peptide substrate containing a fluorophore whose emission is quenched in the intact peptide. • Assay buffer: 100 mM potassium phosphate pH 6.5, EDTA-Na 5 mM, Triton X-100 0.001%, DTT 5 mM. • Enzymes (all at 1 nM): human and mouse Cathepsin S, Cat K, Cat B, Cat L. • Substrate (20 μM): Z-Val-Val-Arg-AMC, except for Cat K which uses Z-Leu-Arg-AMC (both from Bachem). • Z=Benzyloxycarbonyl. • AMC=7-Amino-4-Methyl-Coumarin. • DTT=dithiothreitol. • Final volume: 100 μL. • Excitation 360 nm, Emission 465 nm.
Enzyme is added to the substance dilutions in 96-well microtitre plates and the reaction is started with substrate. Fluorescence emission is measured over 20 minutes, during which time a linear increase is observed in the absence of inhibitor. IC50 are calculated by standard methods.
Inhibition of human Cat S, mouse Cat S, human Cat K, human Cat B, human Cat L and mouse Cat L have been measured separately. The results obtained for human Cat S for representative compounds of the invention are expressed in the following table in μM.

Each structure is given as a SMILES string. pIC50: −log10 of the molar value.

Sequence of human Cat S (P25774 115-331): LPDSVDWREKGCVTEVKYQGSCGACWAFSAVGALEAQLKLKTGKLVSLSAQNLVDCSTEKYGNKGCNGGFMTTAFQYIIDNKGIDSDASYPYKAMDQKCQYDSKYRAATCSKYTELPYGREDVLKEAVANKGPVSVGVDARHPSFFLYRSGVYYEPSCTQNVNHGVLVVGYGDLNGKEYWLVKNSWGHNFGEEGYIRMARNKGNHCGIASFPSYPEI

Take `N#CC1(NC(=O)[C@@H]2C[C@@H](S(=O)(=O)c3ccccc3Cl)CN2C(=O)C2(N3CCCCC3)CC2)CC1` [Example 25, (2S,4R)-4-(2-Chlorophenylsulfonyl)-N-(1-cyanocyclopropyl)-1-(1-(piperidin-1-yl)cyclopropanecarbonyl)pyrrolidine-2-carboxamide]: the pIC50 was 9.30. Consider `CC1CCCN(C2(C(=O)N3C[C@H](S(=O)(=O)c4ccccc4Cl)C[C@H]3C(=O)NC3(C#N)CC3)CC2)C1` (stereo partly drawn) [Example 26, (2S,4R)-4-(2-Chlorophenylsulfonyl)-N-(1-cyanocyclopropyl)-1-(1-(3-methylpiperidin-1-yl)cyclopropanecarbonyl)pyrrolidine-2-carboxamide], for which the pIC50 is 9.40. For `N#CC1(NC(=O)[C@@H]2C[C@@H](S(=O)(=O)c3ccccc3Cl)CN2C(=O)C2(N3CCSCC3)CC2)CC1` [Example 27, (2S,4R)-4-(2-Chlorophenylsulfonyl)-N-(1-cyanocyclopropyl)-1-(1-thiomorpholinocyclopropanecarbonyl)pyrrolidine-2-carboxamide], the pIC50 was 9.52. As to `N#CC1(NC(=O)[C@@H]2C[C@@H](S(=O)(=O)c3ccccc3Cl)CN2C(=O)C2(N3CCCC3)CC2)CC1` [Example 28, (2S,4R)-4-(2-Chlorophenylsulfonyl)-N-(1-cyanocyclopropyl)-1-(1-(pyrrolidin-1-yl)cyclopropanecarbonyl)pyrrolidine-2-carboxamide], the pIC50 was 8.92. The same measure for `CC(C)(C)OC(=O)N1CCN(C2(C(=O)N3C[C@H](S(=O)(=O)c4ccccc4Cl)C[C@H]3C(=O)NC3(C#N)CC3)CC2)CC1` [Example 29, tert-Butyl 4-(1-((2S,4R)-4-(2-chlorophenylsulfonyl)-2-(1-cyanocyclopropylcarbamoyl)pyrrolidine-1-carbonyl)cyclopropyl)piperazine-1-carboxylate]: 8.64; for `N#CC1(NC(=O)[C@@H]2C[C@@H](S(=O)(=O)c3ccccc3Cl)CN2C(=O)C2(N3CCNCC3)CC2)CC1` [Example 30, (2S,4R)-4-(2-Chlorophenylsulfonyl)-N-(1-cyanocyclopropyl)-1-(1-(piperazin-1-yl)cyclopropanecarbonyl)pyrrolidine-2-carboxamide]: 8.38. The result for `CC(=O)N1CCN(C2(C(=O)N3C[C@H](S(=O)(=O)c4ccccc4Cl)C[C@H]3C(=O)NC3(C#N)CC3)CC2)CC1` [Example 31, (2S,4R)-1-(1-(4-Acetylpiperazin-1-yl)cyclopropanecarbonyl)-4-(2-chlorophenylsulfonyl)-N-(1-cyanocyclopropyl)pyrrolidine-2-carboxamide] reads 8.66.

With `CS(=O)(=O)N1CCN(C2(C(=O)N3C[C@H](S(=O)(=O)c4ccccc4Cl)C[C@H]3C(=O)NC3(C#N)CC3)CC2)CC1` [Example 32, (2S,4R)-4-(2-Chlorophenylsulfonyl)-N-(1-cyanocyclopropyl)-1-(1-(4-(methylsulfonyl)piperazin-1-yl)cyclopropanecarbonyl)pyrrolidine-2-carboxamide], the pIC50 was 8.60. As to `COC(=O)N1CCN(C2(C(=O)N3C[C@H](S(=O)(=O)c4ccccc4Cl)C[C@H]3C(=O)NC3(C#N)CC3)CC2)CC1` [Example 33, Methyl 4-(1-((2S,4R)-4-(2-chlorophenylsulfonyl)-2-(1-cyanocyclopropylcarbamoyl)pyrrolidine-1-carbonyl)cyclopropyl)piperazine-1-carboxylate], the pIC50 is 8.59. The same measure for `N#CC1(NC(=O)[C@@H]2C[C@@H](S(=O)(=O)c3ccccc3Cl)CN2C(=O)C2(N3CCN(C=O)CC3)CC2)CC1` [Example 34, (2S,4R)-4-(2-Chlorophenylsulfonyl)-N-(1-cyanocyclopropyl)-1-(1-(4-formylpiperazin-1-yl)cyclopropanecarbonyl)pyrrolidine-2-carboxamide]: 8.85. The same measure for `N#CC1(NC(=O)[C@@H]2C[C@@H](S(=O)(=O)c3ccccc3Cl)CN2C(=O)C2(N3CCN(C(=O)C(F)(F)F)CC3)CC2)CC1` [Example 35, (2S,4R)-4-(2-Chlorophenylsulfonyl)-N-(1-cyanocyclopropyl)-1-(1-(4-(2,2,2-trifluoroacetyl)piperazin-1-yl)cyclopropanecarbonyl)pyrrolidine-2-carboxamide]: 8.43. As for `CCN1CCN(C2(C(=O)N3C[C@H](S(=O)(=O)c4ccccc4Cl)C[C@H]3C(=O)NC3(C#N)CC3)CC2)CC1` [Example 36, (2S,4R)-4-(2-Chlorophenylsulfonyl)-N-(1-cyanocyclopropyl)-1-(1-(4-ethylpiperazin-1-yl)cyclopropanecarbonyl)pyrrolidine-2-carboxamide], the pIC50 is 8.21.

As to `N#CC1(NC(=O)[C@@H]2C[C@@H](S(=O)(=O)c3ccccc3Cl)CN2C(=O)C2(N3CCC(c4ccccc4)CC3)CC2)CC1` [Example 37, (2S,4R)-4-(2-chlorophenylsulfonyl)-N-(1-cyanocyclopropyl)-1-(1-(4-phenylpiperidin-1-yl)cyclopropanecarbonyl)pyrrolidine-2-carboxamide], the pIC50 was 8.92. The same measure for `CC1CCN(C2(C(=O)N3C[C@H](S(=O)(=O)c4ccccc4Cl)C[C@H]3C(=O)NC3(C#N)CC3)CC2)CC1` [Example 38, (2S,4R)-4-(2-chlorophenylsulfonyl)-N-(1-cyanocyclopropyl)-1-(1-(4-methylpiperidin-1-yl)cyclopropanecarbonyl)pyrrolidine-2-carboxamide]: 9.30; for `N#CC1(NC(=O)[C@@H]2C[C@@H](S(=O)(=O)c3ccccc3Cl)CN2C(=O)C2(N3CCOCC3)CC2)CC1` [Example 39, (2S,4R)-4-(2-Chlorophenylsulfonyl)-N-(1-cyanocyclopropyl)-1-(1-morpholino-cyclopropanecarbonyl)pyrrolidine-2-carboxamide]: 9.10.

`N#CC1(NC(=O)[C@@H]2C[C@@H](S(=O)(=O)c3ccccc3Cl)CN2C(=O)C2(N3CCCCCC3)CC2)CC1` [Example 40, (2S,4R)-1-(1-(Azepan-1-yl)cyclopropanecarbonyl)-4-(2-chlorophenylsulfonyl)-N-(1-cyanocyclopropyl)pyrrolidine-2-carboxamide]: the pIC50 was 9.30.

On to `CC1CCCCN1C1(C(=O)N2C[C@H](S(=O)(=O)c3ccccc3Cl)C[C@H]2C(=O)NC2(C#N)CC2)CC1` (stereo partly drawn) [Example 41, (2S,4R)-4-(2-Chlorophenylsulfonyl)-N-(1-cyanocyclopropyl)-1-(1-(2-methylpiperidin-1-yl)cyclopropanecarbonyl)pyrrolidine-2-carboxamide], for which the pIC50 was 9.05. The same measure for `N#CC1(NC(=O)[C@@H]2C[C@@H](S(=O)(=O)c3ccc(F)cc3Cl)CN2C(=O)C2(N3CCCCC3)CC2)CC1` [Example 42, (2S,4R)-4-(2-Chloro-4-fluorophenylsulfonyl)-N-(1-cyanocyclopropyl)-1-(1-(piperidin-1-yl)cyclopropanecarbonyl)pyrrolidine-2-carboxamide]: 9.40; for `N#CC1(NC(=O)[C@@H]2C[C@@H](S(=O)(=O)c3cccc(Cl)c3)CN2C(=O)C2(N3CCCCC3)CC2)CC1` [Example 43, (2S,4R)-4-(3-Chlorophenylsulfonyl)-N-(1-cyanocyclopropyl)-1-(1-(piperidin-1-yl)cyclopropanecarbonyl)pyrrolidine-2-carboxamide]: 9.52; for `Cc1ccc(S(=O)(=O)[C@@H]2C[C@@H](C(=O)NC3(C#N)CC3)N(C(=O)C3(N4CCCCC4)CC3)C2)cc1` [Example 44, (2S,4R)-N-(1-Cyanocyclopropyl)-1-(1-(piperidin-1-yl)cyclopropanecarbonyl)-4-tosylpyrrolidine-2-carboxamide]: 9.40. The same measure for `N#CC1(NC(=O)[C@@H]2C[C@@H](S(=O)(=O)c3ccccc3OC(F)(F)F)CN2C(=O)C2(N3CCCCC3)CC2)CC1` [Example 45, (2S,4R)-N-(1-Cyanocyclopropyl)-1-(1-(piperidin-1-yl)cyclopropanecarbonyl)-4-(2-(trifluoromethoxy)phenylsulfonyl)pyrrolidine-2-carboxamide]: 9.10; for `N#CC1(NC(=O)[C@@H]2C[C@@H](S(=O)(=O)c3cccc(C(F)(F)F)c3)CN2C(=O)C2(N3CCCCC3)CC2)CC1` [Example 46, (2S,4R)-N-(1-Cyanocyclopropyl)-1-(1-(piperidin-1-yl)cyclopropanecarbonyl)-4-(3-(trifluoromethyl)phenylsulfonyl)pyrrolidine-2-carboxamide]: 9.40. For the molecule `N#CC1(NC(=O)[C@@H]2C[C@@H](S(=O)(=O)c3ccc(Cl)cc3)CN2C(=O)C2(N3CCCCC3)CC2)CC1` [Example 47, (2S,4R)-4-(4-Chlorophenylsulfonyl)-N-(1-cyanocyclopropyl)-1-(1-(piperidin-1-yl)cyclopropanecarbonyl)pyrrolidine-2-carboxamide], the pIC50 was 9.10. Regarding `CC1(C)CCCN(C2(C(=O)N3C[C@H](S(=O)(=O)c4ccccc4Cl)C[C@H]3C(=O)NC3(C#N)CC3)CC2)C1` [Example 48, (2S,4R)-4-(2-Chlorophenylsulfonyl)-N-(1-cyanocyclopropyl)-1-(1-(3,3-dimethylpiperidin-1-yl)cyclopropanecarbonyl)pyrrolidine-2-carboxamide], the pIC50 is 8.64.
